The source of these data is publication PMC12590356, “Novel pyrrolo[2,1-a]isoquinoline aryl ketones attenuate carbon nanotube-induced acute lung injury through NF-κB pathway inhibition” (RSC Advances, 2025).

Molecules are shown by their SMILES. Like-named read-outs stand apart in the source and are kept apart here.

Series [1] in a line: CCK8 cell viability (cytotoxicity) assay. The class given is cell-based, murine. Conditions: mouse, RAW264.7 cells, means ± SD (n = 3). The procedure:
The toxic effect of synthesized compounds was evaluated on RAW264.7 cells utilizing a CCK8 assay kit.
RAW264.7 cells were seeded in 96-well plates and incubated with various compounds, each at a uniform concentration of 50 μM, for 24 h. Following this incubation, CCK8 was added to the 96-well plates and incubated at 37 °C for 1 h. The control group was cultivated solely in fresh medium. The absorbance at 450 nm was quantified using an enzyme marker.

The test system of series [2] is LPS-induced NO production in RAW 264.7 cells. In words: LPS-induced NO production (Griess reagent). Also noted: NO inhibition rate: dose or concentration left out as unconfirmed; key to Inhibition of LPS-induced NO production, result in words (na / tox): na: no activity at the concentration of 40 μM; toxicity. In kind it is cell-based, murine. Conditions: for IC50: Mus musculus, RAW264.7, LPS 500 ng/mL 24 h, read-out: IC50, inhibition of LPS-induced NO production; for IC50 / NO inhibition rate: Griess reagent, means ± SD (n = 3); for Inhibition of LPS-induced NO production, result in words (na / tox): na at 40 μM. The procedure: Despite extensive research efforts focused on the treatment ALI, no specific drugs have been identified thus far. In the quest to discover innovative anti-inflammatory drugs for ALI treatment, we assessed the anti-inflammatory potential of pyrrolo[2,1-a]isoquinoline aryl ketones were evaluated through their capacity to suppress LPS-induced NO release in RAW264.7 cells.[21,28] Griess reagent was used to quantify the levels of LPS-induced NO release in RAW264.7 cells following treatment with the synthesized compounds.
The quantification of NO production in activated RAW264.7 cells was achieved by measuring the concentration of nitrite, which serves as a stable oxidative metabolite of NO, employing a previously established protocol.[37] RAW264.7 cells were cultured overnight in 48-well plates at a cellular density of 5 × 10^4 cells per milliliter. […] Briefly, Griess reagents I and II were mixed with 50 μL of the culture medium supernatant, and the resultant mixture was analyzed spectrophotometrically at a wavelength of 540 nm using an automated microplate reader. The NO inhibition rate was calculated using the following formula: NO inhibition rate = [(OD540 − compound OD540)/(OD540 − blank OD540)] × 100%.
On the technique in general: Nitrite, measured by Griess reagent, commonly stands in for NO production.

In series [3] the test system is COX-2. Conditions: cited from earlier work.
Series [4] deals with PPAR-α. More on the design: method as in PMID 22489042. Conditions: cited from earlier work.
Series [5] relates to PPAR-γ. Also noted: method as in PMID 22489042. Conditions: cited from earlier work.
The subject of series [6] is PPAR-δ. More on the design: method as in PMID 22489042. Conditions: cited from earlier work.
Series [7] has as its system COX-1. More on the design: method as in PMID 32358780, PMID 30243628. Conditions: cited from earlier work.

Consider `COC(=O)c1ccc2c3ccccc3ccn12` [3a], for which the viability (in general, a read-out of living cells in per cent, often relative to untreated cells) at 24 h, 50 µM in series [1] was 92.4 ± 6.3%. In addition, the IC50 (in general, the concentration that gives 50% inhibition) in series [2] was 19.9 ± 0.71 µM.

Turning to `CC(C)(C)OC(=O)c1ccc2c3ccccc3ccn12` [3b], the viability at 24 h, 50 µM in series [1] worked out at 95.6 ± 2.9%. Moreover, the NO inhibition rate in series [2] is reported as 42.0 ± 4.2%.

Take `N#Cc1ccc2c3ccccc3ccn12` [3c]: in series [1], the viability at 24 h, 50 µM was 97.1 ± 2.6%. The same compound yielded an NO inhibition rate in series [2] of 46.9 ± 1.8%.

As for `O=C(c1ccccc1)c1ccc2c3ccccc3ccn12` [3d], in series [1], the viability at 24 h, 50 µM was found to be 96.8 ± 6.6%. The NO inhibition rate in series [2] came out at 48.0 ± 1.3%.

Turning to `COc1ccc(C(=O)c2ccc3c4ccccc4ccn23)cc1` [3e], in series [1], the viability at 24 h, 50 µM was 88.7 ± 5.8%.

Regarding `Cc1ccc(C(=O)c2ccc3c4ccccc4ccn23)cc1` [3f], the viability at 24 h, 50 µM in series [1] amounted to 53.6 ± 6.4%. For the same compound, the “Inhibition of LPS-induced NO production, result in words (na / tox)” value in series [2] was “tox”.

Turning to `O=C(c1ccc(Cl)cc1)c1ccc2c3ccccc3ccn12` [3h], in series [1], the viability at 24 h, 50 µM is 101 ± 3%. The compound further came in with an NO inhibition rate in series [2] of 39.6 ± 5.3%.

Take `O=C(c1ccc(Br)cc1)c1ccc2c3ccccc3ccn12` [3i]: in series [1], the viability at 24 h, 50 µM is 95.9 ± 7.7%.

As to `O=C(c1ccc(C(F)(F)F)cc1)c1ccc2c3ccccc3ccn12` [3j], in series [1], the viability at 24 h, 50 µM is 89.9 ± 5.6%.

For `O=C(c1ccccc1Cl)c1ccc2c3ccccc3ccn12` [3l], in series [1], the viability at 24 h, 50 µM was found to be 99.3 ± 8.8%. In addition, the NO inhibition rate in series [2] was determined as 38.2 ± 5.1%.

Consider `O=C(c1ccccc1O)c1ccc2c3ccccc3ccn12` [3m], for which the viability at 24 h, 50 µM in series [1] was found to be 46.4 ± 6.5%. Besides, in series [2], the “Inhibition of LPS-induced NO production, result in words (na / tox)” value is “tox”.

On to `Cc1cccc(C(=O)c2ccc3c4ccccc4ccn23)c1` [3n], for which the NO inhibition rate in series [2] stood at 46.8 ± 3.1%.

With `O=C(c1cccc(Cl)c1)c1ccc2c3ccccc3ccn12` [3o], in series [1], the viability at 24 h, 50 µM was 91.5 ± 8.5%. For the same compound, the NO inhibition rate in series [2] was determined as 39.2 ± 7.1%.

Consider `O=C(c1ccc2ccccc2c1)c1ccc2c3ccccc3ccn12` [3p], for which, in series [1], the viability at 24 h, 50 µM turned out to be 93.2 ± 4.7%.

Turning to `C=C(C)[C@@H]1CC[C@]2(C(=O)O)CC[C@]3(C)[C@H](CC[C@@H]4[C@@]5(C)CC[C@H](O)C(C)(C)[C@@H]5CC[C@]43C)[C@@H]12` [Betulinic acid, reference compound], the viability at 24 h, 50 µM in series [1] came to 85.8 ± 7.4%. For the same compound, the IC50 in series [2] was 11.9 ± 1.3 µM.

Regarding `CC(C)(Oc1ccc(C(=O)c2ccc(Cl)cc2)cc1)C(=O)O` [Fenofibric acid], the IC50 in series [3] (read-out: IC50, COX-2 inhibitory activity) is 0.048 µM. The EC50 (as a rule, the concentration needed to bring the measured effect to its halfway point) in series [4] was […]; in series [5], […]; in series [6], […].

For the compound `CC(C(=O)O)c1cccc(C(=O)c2ccccc2)c1` (stereo not shown) [Ketoprofen], the IC50 was 0.002 µM in series [7] and 0.026 µM in series [3] (read-out: IC50 for COX-2).
